In series [1] the test system is Plutella xylostella (Diamondback Moth). As to the kind of experiment: Example B9: Plutella xylostella (diamondback moth), artificial diet, eggs, 96-well. In kind it is in vivo. To be noted: 216 h, application rate of 500 ppm, 9 days after infestation, read-out: control in mortality. Here is the method: 96-well microtiter plates containing artificial diet were treated with aqueous test solutions, prepared from 10′000 ppm DMSO stock solutions, by a liquid handling robot. After drying, eggs (˜30 per well) were infested onto a netted lid which was suspended above the diet. The eggs hatch and L1 larvae move down to the diet. The samples were assessed for mortality 9 days after infestation.

For series [2], the system named is Myzus persicae (Green Peach Aphid). As to the kind of experiment: Example B6: Myzus persicae (green peach aphid) intrinsic activity, sucrose solution. Format: in vivo. To be noted: 120 h, test rate of 12 ppm, 5 days after infestation, intrinsic activity, read-out: mortality. The essentials:
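Mortality was read 5 days after infestation. Aphids on pea seedlings fed through a stretched Parafilm membrane on inverted 24-well plates containing sucrose solution mixed with test compound, which was diluted from 10′000 ppm DMSO stock.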

The test system of series [3] is Spodoptera littoralis (Egyptian Cotton Leaf Worm). As to the kind of experiment: Example B7: Spodoptera littoralis (Egyptian cotton leaf worm), cotton leaf discs sprayed, L1 larvae. Format: in vivo. To be noted: foliar, 72 h, application rate of 200 ppm, 3 days after infestation, L1 larvae, read-out: control in at least one of the three categories (mortality, anti-feedant effect, or growth inhibition). The method in brief:
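Read-out: mortality, feeding deterrence and growth inhibition, assessed 3 days after infestation relative to untreated samples. Sprayed, dried cotton leaf discs on agar each received five first-instar (L1) larvae; sprays were aqueous solutions prepared from 10′000 ppm DMSO stocks.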

In series [4] the test system is Chilo suppressalis (Striped Rice Stemborer). Nature of the series: Example B3: Chilo suppressalis (striped rice stemborer), artificial diet, L2 larvae. To be noted: 144 h, application rate of 200 ppm, 6 days after infestation, L2 larvae, read-out: control in at least one of the three categories (mortality, anti-feedant effect, or growth inhibition). Format: in vivo. The method in brief:
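Diet-incorporation surface assay: aqueous dilutions of 10'000 ppm DMSO stock applied to artificial diet, dried; 6-8 L2 larvae/well; read day 6 post-infestation for mortality, antifeedant effect, growth inhibition vs untreated. Active if any category above untreated.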

Series [5] deals with Plutella xylostella (Diamond Back Moth). Nature of the series: Example B4: Plutella xylostella (diamond back moth), artificial diet, eggs, 24-well. In kind it is in vivo. To be noted: 192 h, application rate of 200 ppm, 8 days after infestation, eggs, read-out: control in at least one of the two categories (mortality or growth inhibition). The protocol: 24-well microtiter plates with artificial diet were treated with aqueous test solutions prepared from 10′000 ppm DMSO stock solutions by pipetting. After drying, Plutella eggs were pipetted through a plastic stencil onto a gel blotting paper and the plate was closed with it. The samples were assessed for mortality and growth inhibition in comparison to untreated samples 8 days after infestation.

For series [6], the system named is Diabrotica Balteata (Corn Root Worm). Nature of the series: Example B1: Diabrotica balteata (corn root worm), maize sprouts sprayed, L2 larvae. Format: in vivo. To be noted: 96 h, application rate of 200 ppm, 4 days after infestation, L2 larvae, read-out: control in at least one of the two categories (mortality or growth inhibition). The method in brief:
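Spray test: maize sprouts on agar, aqueous dilutions of 10′000 ppm DMSO stock; after drying, 6–10 L2 larvae/well. Read-out at 4 d post-infestation: mortality and growth inhibition vs untreated.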

The subject of series [7] is Myzus persicae (Green Peach Aphid). Nature of the series: Example B5: Myzus persicae (green peach aphid) feeding/contact activity, sunflower leaf discs. To be noted: foliar, 144 h, application rate of 200 ppm, 6 days after infestation. In kind it is in vivo. The protocol:
Sunflower leaf discs were placed onto agar in a 24-well microtiter plate and sprayed with aqueous test solutions prepared from 10′000 ppm DMSO stock solutions. After drying, the leaf discs were infested with an aphid population of mixed ages. The samples were assessed for mortality 6 days after infestation.

Series [8] has as its system Euschistus heros (Neotropical Brown Stink Bug). As to the kind of experiment: Example B2: Euschistus heros (neotropical brown stink bug), soybean leaves sprayed, N2 nymphs. Format: in vivo. To be noted: 120 h, application rate of 200 ppm, 5 days after infestation, N2 nymphs, read-out: control in at least one of the two categories (mortality or growth inhibition). The protocol: Soybean leaves on agar in 24-well microtiter plates were sprayed with aqueous test solutions prepared from 10′000 ppm DMSO stock solutions. After drying the leaves were infested with N2 nymphs. The samples were assessed for mortality and growth inhibition in comparison to untreated samples 5 days after infestation.

As usually defined, the melting point is the temperature, or range, at which the solid turns liquid. In the case of `C[C@@H](c1ncnn1-c1ccc(-c2noc(C(F)(F)F)n2)cn1)N(C)c1ncnc2c(C(F)(F)F)cc(Cl)cc12`, the melting point was in the range of 75 to 77 °C.

In the case of `CC(c1ncnn1-c1ncccn1)N(CC1CC1)c1nc(Cl)nc2c(Br)cc(C(F)(F)F)cc12` (centres unmarked), the melting point is 87 to 89 °C. Broadly, the mortality is the percentage killed. Consider `CC(Nc1nccc2c(C(F)(F)F)cccc12)c1ncnn1-c1ccccn1` (centres unmarked) [P.69, N-[1-[2-(2-pyridyl)-1,2,4-triazol-3-yl]ethyl]-5-(trifluoromethyl)isoquino-lin-1-amine], for which the mortality at 500 ppm in series [1] is at least 80%. In turn, `CC(c1ncnn1-c1ccc(OC(F)F)cn1)N(C)c1ncnc2c(Br)cc(C(F)(F)F)cc12` (centres unmarked) had a melting point of 75 to 77 °C. With `C[C@@H](c1ncnn1-c1ccc(C(N)=NO)cn1)N(C)c1ncnc2c(C(F)(F)F)cc(Cl)cc12`, the melting point is 223 to 225 °C.

In turn, `CC(Nc1ncnc2c(C(F)(F)F)cc(Br)cc12)c1ncnn1-c1ccc(F)cn1` (centres unmarked) displayed a melting point of 282 to 284 °C. For `C[C@@H](c1ncnn1-c1ccc(-c2ncon2)cn1)N(C)c1ncnc2c(C(F)(F)F)cc(Cl)cc12`, the melting point lay within 144 to 146 °C. With `CC(Nc1ncnc2c(Cl)nccc12)c1nccnc1-n1nccn1` (centres unmarked) [P.277, 8-chloro-N-[1-[3-(triazol-2-yl)pyrazin-2-yl]ethyl]pyrido[3,4-d]pyrimidin-4-amine], the mortality at 500 ppm in [1] was at least 80%. For the compound `CC(c1nccnc1-c1ccc(C#N)cn1)N(CC1CC1)c1ncnc2c(C(F)(F)F)cc(Cl)cc12` (centres unmarked), the melting point lay within 254 to 256 °C. In the case of `C[C@H](Nc1c(C#N)cnc2c(C(F)(F)F)cc(C(F)(F)F)cc12)c1ncnn1-c1ccc(C#N)cn1`, the melting point lay in the range of 204 to 206 °C.

`CC(c1nccnc1-c1ccc(C#N)cn1)N(CC1CC1)c1ncnc2c(C(F)(F)F)cc(Br)cc12` (centres unmarked) came in with a melting point of 251 to 253 °C. In turn, `CC(Nc1ncnc2c(Br)cc(C(F)(F)F)cc12)c1ncnn1-c1ccc(Br)cn1` (centres unmarked) returned a melting point of 280 to 282 °C. Compound `C[C@@H](c1ncnn1-c1ncccn1)N(C)c1ncnc2c(C(F)(F)F)cc(C3CC3)cc12` had a melting point of 182 to 184 °C. Compound `CC(Nc1ncnc2c(C(F)(F)F)cc(Cl)cc12)c1ncnn1-c1ccc(Br)cn1` (centres unmarked) registered a melting point of 274 to 276 °C. `C[C@@H](c1ncnn1-c1ccc(C(N)=O)cn1)N(C)c1ncnc2c(C(F)(F)F)cc(C(F)(F)F)cc12`: the melting point lay in the range of 183 to 185 °C. Take `CC(Nc1ncnc2c(C(F)(F)F)cc(Br)cc12)c1ncnn1-c1ccc(Br)cn1` (centres unmarked): the melting point fell in the range of 214 to 216 °C. `C[C@@H](c1ncnn1-c1ccc(-c2nccs2)cn1)N(C)c1ncnc2c(C(F)(F)F)cc(Cl)cc12`: the melting point fell in the range of 142 to 144 °C. In the case of `C[C@@H](c1ncnn1-c1ncccn1)N(C)c1ncnc2c(C(F)(F)C3CC3)cc(C(F)(F)F)cc12` [P.201, 8-[cyclopropyl(difluoro)meth-yl]-N-methyl-N-[(1S)-1-(2-pyrimidin-2-yl-1,2,4-triazol-3-yl)ethyl]-6-(trifluoromethyl)quinazolin-4-amine], the mortality at 12 ppm in [2] is at least 80%. For the same compound, the percent control (mortality, anti-feedant effect or growth inhibition) at 200 ppm in series [3] and in series [4] was at least 80% throughout. The percent control (mortality or growth inhibition) at 200 ppm in series [5], in series [6] and in series [8] was at least 80% in each case. The mortality at 200 ppm in series [7] was at least 80%. On to `C[C@@H](c1ncnn1-c1ncccn1)N(CC1CC1)c1ncnc2c(C(F)(F)F)cc(Cl)cc12` [P.265, 6-chloro-N-(cyclopropylmethyl)-N-[(1S)-1-(2-pyrimidin-2-yl-1,2,4-triazol-3-yl)ethyl]-8-(trifluoromethyl)quinazolin-4-amine], for which the mortality at 12 ppm in series [2] is at least 80%. For the same compound, the percent control (mortality, anti-feedant effect or growth inhibition) at 200 ppm in [3] and in [4] was at least 80% each time. The percent control (mortality or growth inhibition) at 200 ppm in [5], in series [6] and in series [8] was at least 80% each time. Also, in [7], the mortality at 200 ppm is at least 80%. Take `CC(c1ncnn1-c1ccc(OC(F)F)cn1)N(C)c1ncnc2c(Cl)cc(C(F)(F)F)cc12` (centres unmarked): the melting point was in the range of 102 to 104 °C.

`C[C@@H](c1ncnn1-c1ccc(-c2nnn[nH]2)cn1)N(C)c1ncnc2c(C(F)(F)F)cc(Cl)cc12` displayed a melting point of 77 to 79 °C. With `CC(Nc1ncnc2c(Cl)c(F)c(Cl)cc12)c1ncnn1-c1ccc(C#N)cn1` (centres unmarked), the melting point fell in the range of 215 to 225 °C.

For the compound `CC(c1nccnc1-c1ccc(Br)cn1)N(C)c1ncnc2c(Cl)cc(C(F)(F)F)cc12` (centres unmarked), the melting point is 142 to 144 °C. Regarding `CC(c1ncnn1-c1ncccn1)N(CC1CC1)c1nc(Cl)nc2c(Cl)cc(C(F)(F)F)cc12` (centres unmarked), the melting point fell in the range of 81 to 83 °C. `CC(Nc1ncnc2c(Cl)cc(C(F)(F)F)cc12)c1ncnn1-c1ccc(OC(F)F)cn1` (centres unmarked) yielded a melting point of 240 to 242 °C.

Regarding `C[C@@H](c1ncnn1-c1ncccn1)N(C)c1c(C#N)cnc2c(C(F)(F)F)cc(C(F)(F)F)cc12`, the melting point was 84 to 86 °C. In the case of `CC(c1ncnn1-c1ncccn1)N(C)c1ncnc2c(Br)cc(Cl)cc12` (centres unmarked) [P.172, 8-bromo-6-chloro-N-methyl-N-[1-(2-pyrimidin-2-yl-1,2,4-triazol-3-yl)ethyl]quinazolin-4-amine], the mortality at 12 ppm in [2] is at least 80%. Moreover, the percent control (mortality, anti-feedant effect or growth inhibition) at 200 ppm in series [3] and in series [4] was at least 80% each time. The percent control (mortality or growth inhibition) at 200 ppm in [5], in [6] and in [8] was at least 80% in each case. The compound further showed a mortality at 200 ppm in [7] of at least 80%. As to `C[C@@H](c1ncnn1-c1ccc(C#N)cn1)N(CC1CC1)c1ncnc2c(C(F)(F)F)cc(Cl)cc12` [P.264, 6-[5-[(1S)-1-[[6-chloro-8-(trifluoromethyl)quinazolin-4-yl]-(cyclopropylmethyl)amino]ethyl]-1,2,4-triazol-1-yl]pyridine-3-carbonitrile], the mortality at 12 ppm in series [2] was at least 80%. Further, the percent control (mortality, anti-feedant effect or growth inhibition) at 200 ppm in [3] and in series [4] was at least 80% each time. The percent control (mortality or growth inhibition) at 200 ppm in [5], in series [6] and in series [8] was at least 80% in each case. The same compound yielded a mortality at 200 ppm in series [7] of at least 80%. `CC(Nc1c(C#N)cnc2c(C(F)(F)F)cc(C(F)(F)F)cc12)c1ncnn1-c1ccc(C#N)cn1` (centres unmarked) displayed a melting point of 261 to 263 °C. For `CC(c1ncnn1-c1ccc(C#N)cn1)N(C)c1ncnc2c(Cl)c(F)c(Cl)cc12` (centres unmarked), the melting point lay within 145 to 155 °C.

`C[C@H](Nc1c(C#N)cnc2c(C(F)(F)F)cc(C(F)(F)F)cc12)c1ncnn1-c1ncccn1` registered a melting point of 203 to 205 °C. `CC(Nc1ncnc2c(Cl)cc(C(F)(F)F)cc12)c1nccnc1-c1ccc(Br)cn1` (centres unmarked) came in with a melting point of 230 to 232 °C.

Values taken from patent US20230002359A1, “PESTICIDALLY ACTIVE FUSED BICYCLIC HETEROAROMATIC COMPOUNDS” (priority 2019, published 2023).
